Experiments:
Assay type in all cases: in vivo
[1] = tested on: rice and Echinochloa crusgali; assay: Herbicide selection index between rice and Echinochloa crusgali; settings: average dose causing 10% phytotoxicity to rice divided by average dose causing 90% control efficiency to Echinochloa crusgali
[2] = tested on: Japonica rice (Huaidao No. 5); assay: Safety test of control experiments on rice
Excerpt: (§1) The activity level criteria for plant damage (i.e., growth control rate) are as follows: Comparative Experiments: [table]

[3] = tested on: Indica rice (Huanghuazhan); assay: Safety test of control experiments on rice
Excerpt: as §1

Stellaria media = assay: Weeding effect in post-emergence stage (greenhouse pot spray)
Outline: (§2)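 Pot-grown greenhouse plants, 2-3 leaf stage; spray-tower application; formulation acetone/Tween 80 plus methyl oleate EC 1.5 liter/ha as synergist; rates 500, 250, 125, 60, 15 g a.i./ha; assessed 3 wk post-treatment as fresh weight control, n=3.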

Amaranthus retroflexus = assay: as above
Outline: as §2

weeds = assay: Actual control effects and combined effects of mixtures of active ingredients (i) and (ii), stem-leaf treatment, Gowing method; settings: stem-leaf treatment, 20 days
Abutilon theophrasti = assay: Weeding effect in post-emergence stage (greenhouse pot spray)
Outline: as §2

Setaria viridis = assay: as above
Outline: as §2

Digitaria sanguinalis = assay: as above
Outline: as §2

Echinochloa crusgalli = assay: as above
Outline: as §2

SMILES: Cc1nnc(NC(=O)c2ccc(C(F)(F)F)c(N3CCCC3=O)c2Cl)o1 [Control Compound C, reference compound]
- Selection index between rice and Echinochloa crusgali [1]: 1.1
- Japonica rice (Huaidao No. 5) (plant damage level) ([2]; Dose 125 g a.i./ha): 4 (Level 4: growth control rate is greater than or equal to 60% and less than 85%)
- Indica rice (Huanghuazhan) (plant damage level) ([3]; Dose 125 g a.i./ha): 5 (Level 5: growth control rate is above 85%)

SMILES: Cc1nnc(NC(=O)c2ccc(C(F)(F)F)c(S(C)(=O)=O)c2C)o1 [Control Compound B, reference compound]
- Selection index between rice and Echinochloa crusgali [1]: 0.8
- Japonica rice (Huaidao No. 5) (plant damage level) ([2]; Dose 125 g a.i./ha): 3 (Level 3: growth control rate is greater than or equal to 40% and less than 60%)
- Japonica rice (Huaidao No. 5) (plant damage level) ([2]; Dose 250 g a.i./ha): 3 (Level 3: growth control rate is greater than or equal to 40% and less than 60%)
- Indica rice (Huanghuazhan) (plant damage level) ([3]; Dose 125 g a.i./ha): 3 (Level 3: growth control rate is greater than or equal to 40% and less than 60%)
- Indica rice (Huanghuazhan) (plant damage level) ([3]; Dose 250 g a.i./ha): 4 (Level 4: growth control rate is greater than or equal to 60% and less than 85%)

SMILES: CSc1c(C(F)(F)F)ccc(C(=O)Nc2nnc(C)o2)c1F [Compound 1-1]
- Stellaria media (activity level) (Stellaria media; Table 2, dose 60 g a.i./ha): 3 (Level 3: growth control rate is greater than or equal to 40% and less than 60%)
- Stellaria media (activity level) (Stellaria media; Table 2, dose 125 g a.i./ha): 4 (Level 4: growth control rate is greater than or equal to 60% and less than 85%)
- Stellaria media (activity level) (Stellaria media; Table 2, dose 250 g a.i./ha): 4 (Level 4: growth control rate is greater than or equal to 60% and less than 85%)
- Stellaria media (activity level) (Stellaria media; Table 2, dose 500 g a.i./ha): 4 (Level 4: growth control rate is greater than or equal to 60% and less than 85%)
- Amaranthus retroflexus (activity level) (Amaranthus retroflexus; Table 2, dose 60 g a.i./ha): 4 (Level 4: growth control rate is greater than or equal to 60% and less than 85%)
- Amaranthus retroflexus (activity level) (Amaranthus retroflexus; Table 2, dose 125 g a.i./ha): 4 (Level 4: growth control rate is greater than or equal to 60% and less than 85%)
- Amaranthus retroflexus (activity level) (Amaranthus retroflexus; Table 2, dose 250 g a.i./ha): 4 (Level 4: growth control rate is greater than or equal to 60% and less than 85%)
- Amaranthus retroflexus (activity level) (Amaranthus retroflexus; Table 2, dose 500 g a.i./ha): 4 (Level 4: growth control rate is greater than or equal to 60% and less than 85%)
- Control effect of (i) alone at corresponding dose (weeds; Cyperus difformis, (i) 1 g a.i./mu): 6.2%
- Control effect of (i) alone at corresponding dose (weeds; Cyperus difformis, (i) 5 g a.i./mu): 30.6%
- Control effect of (i) alone at corresponding dose (weeds; Echinochloa phyllopogon, (i) 1 g a.i./mu): 8.3%
- Control effect of (i) alone at corresponding dose (weeds; Echinochloa phyllopogon, (i) 2 g a.i./mu): 18.7%
- Control effect of (i) alone at corresponding dose (weeds; Echinochloa phyllopogon, (i) 3 g a.i./mu): 43.1%
- Control effect of (i) alone at corresponding dose (weeds; Leptochloa chinensis, (i) 5 g a.i./mu): 3.8%
- Control effect of (i) alone at corresponding dose (weeds; Leptochloa chinensis, (i) 15 g a.i./mu): 20.3%
- Control effect of (i) alone at corresponding dose (weeds; Monochoria vaginalis, (i) 5 g a.i./mu): 9.6%
- Control effect of (i) alone at corresponding dose (weeds; Monochoria vaginalis, (i) 6 g a.i./mu): 12.3%
- Control effect of (i) alone at corresponding dose (weeds; Monochoria vaginalis, (i) 7.5 g a.i./mu): 15.1%
- Control effect of (i) alone at corresponding dose (weeds; Monochoria vaginalis, (i) 15 g a.i./mu): 23.9%
- Control effect of (i) alone at corresponding dose (weeds; Sagittaria trifolia, (i) 1 g a.i./mu): 10.9%
- Control effect of (i) alone at corresponding dose (weeds; Sagittaria trifolia, (i) 5 g a.i./mu): 33.5%
- Abutilion theophrasti (activity level) (Abutilon theophrasti; Table 2, dose 60 g a.i./ha): 2 (Level 2: growth control rate is greater than or equal to 20% and less than 40%)
- Abutilion theophrasti (activity level) (Abutilon theophrasti; Table 2, dose 125 g a.i./ha): 4 (Level 4: growth control rate is greater than or equal to 60% and less than 85%)
- Abutilion theophrasti (activity level) (Abutilon theophrasti; Table 2, dose 250 g a.i./ha): 4 (Level 4: growth control rate is greater than or equal to 60% and less than 85%)
- Abutilion theophrasti (activity level) (Abutilon theophrasti; Table 2, dose 500 g a.i./ha): 4 (Level 4: growth control rate is greater than or equal to 60% and less than 85%)
- Abutilon theophrasti (activity level) (Abutilon theophrasti; Table 3, dose 60 g a.i./ha): 2 (Level 2: growth control rate is greater than or equal to 20% and less than 40%)
- Abutilon theophrasti (activity level) (Abutilon theophrasti; Table 3, dose 120 g a.i./ha): 4 (Level 4: growth control rate is greater than or equal to 60% and less than 85%)
- Setaria viridis (activity level) (Setaria viridis; Table 3, dose 7.5 g a.i./ha): 0 (Level 0: growth control rate is less than 5%)
- Setaria viridis (activity level) (Setaria viridis; Table 3, dose 15 g a.i./ha): 0 (Level 0: growth control rate is less than 5%)
- Setaria viridis (activity level) (Setaria viridis; Table 3, dose 30 g a.i./ha): 1 (Level 1: growth control rate is greater than or equal to 5% and less than 20%)
- Setaria viridis (activity level) (Setaria viridis; Table 3, dose 60 g a.i./ha): 1 (Level 1: growth control rate is greater than or equal to 5% and less than 20%)
- Setaria viridis (activity level) (Setaria viridis; Table 3, dose 120 g a.i./ha): 2 (Level 2: growth control rate is greater than or equal to 20% and less than 40%)
- Digitaria sanguinalis (activity level) (Digitaria sanguinalis; Table 2, dose 60 g a.i./ha): 1 (Level 1: growth control rate is greater than or equal to 5% and less than 20%)
- Digitaria sanguinalis (activity level) (Digitaria sanguinalis; Table 2, dose 125 g a.i./ha): 2 (Level 2: growth control rate is greater than or equal to 20% and less than 40%)
- Digitaria sanguinalis (activity level) (Digitaria sanguinalis; Table 2, dose 250 g a.i./ha): 3 (Level 3: growth control rate is greater than or equal to 40% and less than 60%)
- Digitaria sanguinalis (activity level) (Digitaria sanguinalis; Table 2, dose 500 g a.i./ha): 4 (Level 4: growth control rate is greater than or equal to 60% and less than 85%)
- Digitaria sanguinahs (activity level) (Digitaria sanguinalis; Table 3, dose 7.5 g a.i./ha): 0 (Level 0: growth control rate is less than 5%)
- Digitaria sanguinahs (activity level) (Digitaria sanguinalis; Table 3, dose 15 g a.i./ha): 0 (Level 0: growth control rate is less than 5%)
- Digitaria sanguinahs (activity level) (Digitaria sanguinalis; Table 3, dose 30 g a.i./ha): 1 (Level 1: growth control rate is greater than or equal to 5% and less than 20%)
- Digitaria sanguinahs (activity level) (Digitaria sanguinalis; Table 3, dose 60 g a.i./ha): 1 (Level 1: growth control rate is greater than or equal to 5% and less than 20%)
- Digitaria sanguinahs (activity level) (Digitaria sanguinalis; Table 3, dose 120 g a.i./ha): 2 (Level 2: growth control rate is greater than or equal to 20% and less than 40%)
- Echinochloa crusgah (activity level) (Echinochloa crusgalli; Table 2, dose 60 g a.i./ha): 2 (Level 2: growth control rate is greater than or equal to 20% and less than 40%)
- Echinochloa crusgah (activity level) (Echinochloa crusgalli; Table 2, dose 125 g a.i./ha): 4 (Level 4: growth control rate is greater than or equal to 60% and less than 85%)
- Echinochloa crusgah (activity level) (Echinochloa crusgalli; Table 2, dose 250 g a.i./ha): 4 (Level 4: growth control rate is greater than or equal to 60% and less than 85%)
- Echinochloa crusgah (activity level) (Echinochloa crusgalli; Table 2, dose 500 g a.i./ha): 4 (Level 4: growth control rate is greater than or equal to 60% and less than 85%)
- Echinochloa crusgali (activity level) (Echinochloa crusgalli; Table 3, dose 7.5 g a.i./ha): 0 (Level 0: growth control rate is less than 5%)
- Echinochloa crusgali (activity level) (Echinochloa crusgalli; Table 3, dose 15 g a.i./ha): 1 (Level 1: growth control rate is greater than or equal to 5% and less than 20%)
- Echinochloa crusgali (activity level) (Echinochloa crusgalli; Table 3, dose 30 g a.i./ha): 2 (Level 2: growth control rate is greater than or equal to 20% and less than 40%)
- Echinochloa crusgali (activity level) (Echinochloa crusgalli; Table 3, dose 60 g a.i./ha): 2 (Level 2: growth control rate is greater than or equal to 20% and less than 40%)

SMILES: CCS(=O)(=O)c1c(C(F)(F)F)ccc(C(=O)Nc2nnc(C)o2)c1Cl [Control Compound D, reference compound]
- Selection index between rice and Echinochloa crusgali [1]: 1
- Japonica rice (Huaidao No. 5) (plant damage level) ([2]; Dose 60 g a.i./ha): 5 (Level 5: growth control rate is above 85%)
- Indica rice (Huanghuazhan) (plant damage level) ([3]; Dose 60 g a.i./ha): 5 (Level 5: growth control rate is above 85%)
